Test results reported in patent publication US20040122062A1, “Use of growth hormone secretagogues for treatment of physical performance decline” (Pfizer Inc, priority 2000, published 2004).
Where a SMILES comes first, the peptide text is derived from it. [ ]: non-standard residue; d: D form. d2Nal = N[C@H](Cc1ccc2ccccc2c1)C(=O)O; Aib = CC(C)(N)C(=O)O

Key:
[1] = adult female rats; cited from earlier work
[2] = 6-Minute Walk Test in a clinical study; assay type: in vivo, human; details: all dose groups, week 6 and week 12
Experimental: One physical performance endpoint in a clinical study was to determine whether the test compound, 2-amino-N-[2-(3a-(R)-benzyl-2-methyl-3-oxo-2,3,3a,4,6,7-hexahydro-pyrazolo[4,3-c]pyridin-5-yl)-1-(R)-benzyloxymethyl-2-oxo-ethyl]-isobutyramide, L-tartrate, increased the six-minute walk distance in subjects with mild-to-moderate congestive heart failure. There were four dose groups, 3 mg po tid; 6 mg po tid; 10 mg po q am, and placebo.
The six-minute walk study was performed at baseline, week 6, and week 12. The purpose of this test was to determine how many feet an individual can walk within six-minutes.

[3] = canines during remobilization; cited from earlier work
[4] = obese young males; cited from earlier work

In the case of `CC(C)(N)C(=O)N[C@@H](Cc1c[nH]cn1)C(=O)N[C@H](Cc1ccc2ccccc2c1)C(=O)N[C@H](Cc1ccccc1)C(=O)N[C@@H](CCCCN)C(N)=O` [ipamorelin] (H-[Aib]H[d2Nal][dF]K-NH2), the bone mass [1] is listed as “have the capacity to increase bone mass”.

In the case of GHRP-6, the bone mass [1] is listed as “have the capacity to increase bone mass”.

With `CN1N=C2CCN(C(=O)[C@@H](COCc3ccccc3)NC(=O)C(C)(C)N)C[C@@]2(Cc2ccccc2)C1=O.O=C(O)C(O)C(O)C(=O)O` [2-amino-N-[2-(3a-(R)-benzyl-2-methyl-3-oxo-2,3,3a,4,6,7-hexahydro-pyrazolo[4,3-c]pyridin-5-yl)-1-(R)-benzyloxymethyl-2-oxo-ethyl]-isobutyramide, L-tartrate] the “six-minute walk distance, change from baseline” value [2] was “increased in all dose groups at both 6 and 12 weeks”.

In the case of `CC(C)(N)C(=O)N[C@H](COCc1ccccc1)C(=O)N1CCC2(CC1)CN(S(C)(=O)=O)c1ccccc12` [MK-0677], the “levels of serum insulin-like growth factor-I” value [3] is given as “elevated”, the “size and strength of the quadriceps muscle” value [3] is given as “increased” and the “markers of bone formation and bone resorption” value [4] is given as “increases”.
